Laboratory results taken from the supplement of paper PMC10307832.

Columns and labels:
Assay in all cases: relative viability (nuclei count vs DMSO), 5 days (fraction); higher = more cells survive
Sulindac = compound: CC1=C(CC(=O)O)c2cc(F)ccc2/C1=C\c1ccc([S+](C)[O-])cc1 [Sulindac]
In short: (§1)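 MetaXpress counted nuclei in 4× images of lung cancer cell lines that had been fixed, permeabilised and Hoechst-stained in one step. Before that, cells in 1536-well plates were kept overnight at 37 °C, pinned with five √10-spaced library-drug doses on vehicle-anchored plates, and cultured 5 days without medium change. Viability takes treated-well nuclei over vehicle-well nuclei and uses the median across plates. Plates were accepted only at control CV below 25% and at least one doubling.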

Staurosporine = compound: CN[C@@H]1C[C@H]2O[C@@](C)([C@@H]1OC)n1c3ccccc3c3c4c(c5c6ccccc6n2c5c31)C(=O)NC4 [Staurosporine]
In short: as §1

5-Fluorouracil = compound: O=c1[nH]cc(F)c(=O)[nH]1 [5-Fluorouracil]
In short: as §1

[1] = compound: CN[C@@H]1C[C@H]2O[C@@](C)([C@@H]1OC)n1c3ccccc3c3c4c(c5c6ccccc6n2c5c31)C(=O)NC4 [Staurosporine] + C[C@@H](Oc1cc(-c2cnn(C3CCNCC3)c2)cnc1N)c1c(Cl)ccc(F)c1Cl [Crizotinib] (partner 1 µM)
In short: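 Five library-drug doses in √10 steps were combined with a fixed anchor-drug dose, or a single drug was given alone, by pin tool to lung cancer cell lines in 1536-well plates the day after seeding. Nuclei were stained and counted after 5 days. Relative viability is the nuclei count in treated wells over that in vehicle wells, taken as the median of duplicate plates.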

| Cell Line | relative viability (Sulindac; 0.08 µM) | relative viability (Sulindac; 0.253 µM) | relative viability (Sulindac; 0.8 µM) | relative viability (Sulindac; 2.53 µM) | relative viability (Sulindac; 8 µM) | relative viability (Staurosporine; 0.005 µM) | relative viability (Staurosporine; 0.01581 µM) | relative viability (Staurosporine; 0.05 µM) | relative viability (Staurosporine; 0.1581 µM) | relative viability (Staurosporine; 0.5 µM) | relative viability (5-Fluorouracil; 0.02 µM) | relative viability (5-Fluorouracil; 0.2 µM) | relative viability (5-Fluorouracil; 0.6325 µM) | relative viability (5-Fluorouracil; 2 µM) | relative viability ([1]; first compound 0.005 µM) | relative viability ([1]; first compound 0.05 µM) | relative viability ([1]; first compound 0.1581 µM) | relative viability ([1]; first compound 0.5 µM) | relative viability ([1]; first compound 0.01581 µM) |
| --- | --- | --- | --- | --- | --- | --- | --- | --- | --- | --- | --- | --- | --- | --- | --- | --- | --- | --- | --- |
| LXF-289 | 1.11 | 1.05 | 0.994 | 1.02 | 1.08 | 1.02 | 0.652 | 0.477 | 0.0851 | 0.127 | 0.961 | 0.912 | 0.434 | 0.301 | 0.751 | 0.258 | 0.0796 | 0.0672 |  |
| NCI-H23 | 1.19 | 0.802 | 0.701 | 0.799 | 1.15 | 0.704 | 0.139 | 0.367 | 0.164 | 0.117 | 1 | 1.13 | 0.601 | 0.387 | 0.296 | 0.193 | 0.176 | 0.125 | 0.234 |
| NCI-H322M | 0.951 | 0.921 | 0.869 | 0.903 | 0.989 | 1.13 | 0.491 | 0.58 | 0.387 | 0.344 | 0.954 | 0.923 | 0.791 | 0.651 | 0.98 | 0.654 | 0.558 | 0.433 | 0.666 |
| NCI-H358 | 0.918 | 1.01 | 0.74 | 0.999 | 1.16 | 1.03 | 0.326 | 0.203 | 0.117 | 0.104 | 1 | 1.05 | 0.882 | 0.584 | 0.386 | 0.106 | 0.116 | 0.0764 | 0.225 |
| NCI-H441 | 1.34 | 1.25 | 0.78 | 1.09 | 1.37 | 0.889 | 0.275 | 0.266 | 0.18 | 0.129 | 0.887 | 0.866 | 0.591 | 0.385 | 0.8 | 0.3 | 0.179 | 0.156 | 0.29 |
| NCI-H460 | 1.29 | 1.06 | 0.906 | 0.976 | 1.06 | 0.963 | 0.762 | 0.824 | 0.0553 | 0.0329 | 0.99 | 0.72 | 0.165 | 0.0713 | 0.708 | 0.0267 | 0.0065 | 0.0073 | 0.677 |
| NCI-H520 | 1.16 | 1.08 | 0.891 | 0.957 | 1.06 | 1.14 | 0.706 | 0.698 | 0.272 | 0.163 | 0.923 | 1.06 | 0.73 | 0.516 | 0.711 | 0.279 | 0.188 | 0.11 | 0.448 |
| NCI-H596 | 0.975 | 1.03 | 0.846 | 1.02 | 1.04 |  | 0.54 | 0.792 | 0.204 | 0.151 | 1.01 | 0.981 | 0.718 | 0.439 | 1.16 | 0.447 | 0.189 | 0.156 | 0.959 |
| NCI-H647 | 1.32 | 1.15 | 0.791 | 0.898 | 1.11 | 0.546 | 0.317 | 0.295 | 0.0837 | 0.059 | 1 | 1.11 | 0.842 | 0.623 | 0.53 | 0.162 | 0.0569 | 0.0579 | 0.295 |
| NCI-H650 | 1.1 | 1.04 | 0.91 | 0.849 | 1.27 | 0.63 | 0.321 | 0.236 | 0.229 | 0.252 | 0.904 | 0.648 | 0.411 | 0.381 | 0.443 | 0.271 | 0.196 | 0.151 | 0.333 |
| NCI-H661 | 1.13 | 1.05 | 0.989 | 1 | 0.965 | 1.02 | 0.722 | 0.555 | 0.364 | 0.238 | 0.998 | 1.04 | 0.954 | 0.992 | 1.03 | 0.81 | 0.501 | 0.415 | 0.9 |
| NCI-H727 | 0.963 | 0.923 | 0.741 | 0.9 | 1.01 | 0.736 | 0.554 | 0.381 | 0.345 | 0.22 | 0.925 | 1.19 | 0.846 | 0.774 | 0.3 | 0.228 | 0.181 | 0.164 | 0.322 |
| NCI-H838 | 1.05 | 1.04 | 0.879 | 0.94 | 1.07 | 0.447 | 0.315 | 0.221 | 0.189 | 0.126 | 0.879 | 1.03 | 0.597 | 0.387 | 0.259 | 0.175 | 0.168 | 0.127 | 0.179 |
| NCI-H1299 | 1.13 | 1.09 | 0.908 | 1.05 | 1.08 | 0.815 | 0.491 | 0.284 | 0.207 | 0.137 | 1.1 | 1.05 | 0.955 | 0.703 | 0.516 | 0.55 | 0.163 | 0.142 | 0.385 |
